Values of other authors in patent publication US20030096243A1, “Methods and reagents for live-cell gene expression quantification” (priority 2000, published 2003).
Ends that are not written are not given here. * marks the point of attachment. FITC = O=C1OC2(c3ccc(O)cc3Oc3cc(O)ccc32)c2ccc(NC(=S)*)cc21

What was measured:
N protein = biological target: T1, N protein (Escherichia phage lambda, UniProt P03045); details: native sequence GCCCUGAAAAAGGGC (SEQ ID NO: 45)
T1 sequence (P03045 1-107): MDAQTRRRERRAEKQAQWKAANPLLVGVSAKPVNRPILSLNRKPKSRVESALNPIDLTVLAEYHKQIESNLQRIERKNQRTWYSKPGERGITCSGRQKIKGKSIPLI

[1] = test system: boxB RNA stem-loop structure

GCCCUAAAAAAGGGC (chemistry not given here) [SEQ ID NO: 44]
in vivo activity relative to the native boxB sequence (N protein): less than 1%

GCCCUAGAAAAGGGC (chemistry not given here) [SEQ ID NO: 46]
in vivo activity relative to the native boxB sequence (N protein): ~90%

N1-22: arginine-rich peptide comprising the first twenty-two amino acids of bacteriophage λ N protein ({FITC}-MDAQTRRRERRAEKQAQWKAANKG; not fully specified (residue 23); also: doubly labeled)
affinity for boxB RNA [1]: high affinity
